This note sets out measurements from the NIST ThermoML archive (doi:10.1016/j.fluid.2011.04.017).

Structures are written as SMILES. ± gives the expanded uncertainty stated by the source.

For the data set the following is noted: 101.33 kPa, Liquid, Vibrating tube method.

The term mass density denotes mass per unit of volume. In the case of `CCCCn1cc[n+](C)c1.F[P-](F)(F)(F)(F)F` [1-butyl-3-methylimidazolium hexafluorophosphate], the mass density (298.1 K) was found to be 1366.38 ± 1.7 kg/m3. In the case of `CCCCCCCCCn1cc[n+](C)c1.F[P-](F)(F)(F)(F)F` [1-nonyl-3-methylimidazolium hexafluorophosphate], the mass density is, setting by setting: (293.15 K) 1198.32 ± 0.2 kg/m3; (298.15 K) 1194.34 ± 0.19 kg/m3.
